# Laboratory results as given in patent publication US20260262643A1, “HERBICIDAL BENZOXAZINES” (FMC CORPORATION, priority 2022, published 2026).
# Tests used:
# [1] = test system: kochia; experiment: Test C postemergence; format: in vivo, Bassia scoparia; settings: 10 days
# Procedure, shortened: (§1)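 Visual injury score, 0–100 (100 = complete control), taken 10 days after treatment relative to untreated controls. Pre: directed spray onto soil over sown seeds. Post: foliar spray at one- to two-leaf stage, 2–10 cm. Solvent/surfactant formulation; loam–sand soil; greenhouse.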
# [2] = test system: oat, wild; experiment: Test C preemergence; format: in vivo, Avena fatua; settings: 0 to 100 scale (0 no effect, 100 complete control)
# Procedure, shortened: as §1
# [3] = test system: ryegrass, Italian; experiment: Test C preemergence; format: in vivo, Lolium multiflorum; settings: 0 to 100 scale (0 no effect, 100 complete control)
# Procedure, shortened: as §1
# [4] = test system: barnyardgrass; experiment: Test C preemergence; format: in vivo, Echinochloa crusgalli; settings: 0 to 100 scale (0 no effect, 100 complete control)
# Procedure, shortened: as §1
# [5] = test system: oat, wild; experiment: Test C postemergence; format: in vivo, Avena fatua; settings: 10 days
# Procedure, shortened: as §1
# [6] = test system: wheat; experiment: Test C preemergence; format: in vivo, Triticum aestivum; settings: 0 to 100 scale (0 no effect, 100 complete control)
# Procedure, shortened: as §1
# [7] = test system: green foxtail; experiment: Test C preemergence; format: in vivo, Setaria viridis; settings: 0 to 100 scale (0 no effect, 100 complete control)
# Procedure, shortened: as §1
# [8] = test system: wheat; experiment: Test C postemergence; format: in vivo, Triticum aestivum; settings: 10 days
# Procedure, shortened: as §1
# [9] = test system: horseweed; experiment: Test C postemergence; format: in vivo, Erigeron canadensis; settings: 10 days
# Procedure, shortened: as §1
# [10] = test system: barnyardgrass; experiment: Test C postemergence; format: in vivo, Echinochloa crusgalli; settings: 10 days
# Procedure, shortened: as §1
# [11] = test system: green foxtail; experiment: Test C postemergence; format: in vivo, Setaria viridis; settings: 10 days
# Procedure, shortened: as §1
# [12] = test system: ragweed; experiment: Test C postemergence; format: in vivo, Ambrosia artemisiifolia; settings: 10 days
# Procedure, shortened: as §1
# [13] = test system: pigweed, palmer; experiment: Test C postemergence; format: in vivo, Amaranthus palmeri; settings: 10 days
# Procedure, shortened: as §1
# [14] = test system: sedge, umbrella; experiment: Test D flooded paddy test; format: in vivo, Cyperus difformis; settings: 250 g ai/ha, applied to paddy water, visual rating after 13 to 14 days, scale 0 to 100 (0 no effect, 100 complete control)
# Procedure, shortened: (§2)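 Seedlings reached the 2-leaf stage, then pots were flooded to 3 cm over the soil surface. Compound was applied into the water, depth was maintained, and plants stayed in the greenhouse 13 to 14 days before visual scoring (0–100) relative to controls.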
# [15] = test system: kochia; experiment: Test C preemergence; format: in vivo, Bassia scoparia; settings: 0 to 100 scale (0 no effect, 100 complete control)
# Procedure, shortened: as §1
# [16] = test system: corn; experiment: Test C preemergence; format: in vivo, Zea mays; settings: 0 to 100 scale (0 no effect, 100 complete control)
# Procedure, shortened: as §1
# [17] = test system: ryegrass, Italian; experiment: Test C postemergence; format: in vivo, Lolium multiflorum; settings: 10 days
# Procedure, shortened: as §1
# [18] = test system: rice; experiment: Test D flooded paddy test; format: in vivo, Oryza sativa; settings: 250 g ai/ha, applied to paddy water, visual rating after 13 to 14 days, scale 0 to 100 (0 no effect, 100 complete control)
# Procedure, shortened: as §2
# [19] = test system: soybean; experiment: Test C preemergence; format: in vivo, Glycine max; settings: 0 to 100 scale (0 no effect, 100 complete control)
# Procedure, shortened: as §1
# [20] = test system: blackgrass; experiment: Test C postemergence; format: in vivo, Alopecurus myosuroides; settings: 10 days
# Procedure, shortened: as §1
# [21] = test system: ragweed; experiment: Test C preemergence; format: in vivo, Ambrosia artemisiifolia; settings: 0 to 100 scale (0 no effect, 100 complete control)
# Procedure, shortened: as §1
# [22] = test system: barnyardgrass; experiment: Test D flooded paddy test; format: in vivo, Echinochloa crus-galli; settings: 250 g ai/ha, applied to paddy water, visual rating after 13 to 14 days, scale 0 to 100 (0 no effect, 100 complete control)
# Procedure, shortened: as §2
# [23] = test system: ducksalad; experiment: Test D flooded paddy test; format: in vivo, Heteranthera limosa; settings: 250 g ai/ha, applied to paddy water, visual rating after 13 to 14 days, scale 0 to 100 (0 no effect, 100 complete control)
# Procedure, shortened: as §2
# [24] = test system: blackgrass; experiment: Test C preemergence; format: in vivo, Alopecurus myosuroides; settings: 0 to 100 scale (0 no effect, 100 complete control)
# Procedure, shortened: as §1
# [25] = test system: corn; experiment: Test C postemergence; format: in vivo, Zea mays; settings: 10 days
# Procedure, shortened: as §1
# [26] = test system: pigweed, palmer; experiment: Test C preemergence; format: in vivo, Amaranthus palmeri; settings: 0 to 100 scale (0 no effect, 100 complete control)
# Procedure, shortened: as §1
# [27] = test system: soybean; experiment: Test C postemergence; format: in vivo, Glycine max; settings: 10 days
# Procedure, shortened: as §1
# [28] = test system: galium; experiment: Test C postemergence; format: in vivo, Galium aparine; settings: 10 days
# Procedure, shortened: as §1
# [29] = 125 g ai/ha, postemergence, 0 to 100 scale, 0 no effect, 100 complete control
# [30] = Postemergence, 500 g ai/ha, visual 0 to 100 scale (0 no effect, 100 complete control)
# [31] = Preemergence, 500 g ai/ha, visual rating after 10 days
# [32] = Test C, preemergence, 125 g ai/ha
smiles,measurement,setting,value
Cc1ccc(-n2cnc(C3(C(F)(F)F)CC3)n2)cc1C(=O)N1C[C@H](C)Oc2c(Cl)cccc21 [Compound 175],"Plant response rating, Kochia",[1]; [29],90
same,"Plant response rating, Kochia",[1]; [30],100
same,"Plant response rating, Oat, Wild",[2]; [31],50
same,"Oat, Wild plant response rating",[2]; [32],20
same,"Plant response rating, Ryegrass, Italian",[3]; [31],90
same,"Ryegrass, Italian plant response rating",[3]; [32],80
same,"Plant response rating, Barnyardgrass",[4]; [31],100
same,Barnyardgrass plant response rating,[4]; [32],70
same,"Plant response rating, Oat, Wild",[5]; [29],10
same,"Plant response rating, Oat, Wild",[5]; [30],20
same,"Plant response rating, Wheat",[6]; [31],20
same,Wheat plant response rating,[6]; [32],20
same,"Plant response rating, Foxtail, Green",[7]; [31],100
same,"Foxtail, Green plant response rating",[7]; [32],90
same,"Plant response rating, Wheat",[8]; [29],10
same,"Plant response rating, Wheat",[8]; [30],10
same,"Plant response rating, Horseweed",[9]; [29],80
same,"Plant response rating, Horseweed",[9]; [30],60
same,"Plant response rating, Barnyardgrass",[10]; [29],20
same,"Plant response rating, Barnyardgrass",[10]; [30],50
same,"Plant response rating, Foxtail, Green",[11]; [29],30
same,"Plant response rating, Foxtail, Green",[11]; [30],70
same,"Plant response rating, Ragweed",[12]; [29],20
same,"Plant response rating, Ragweed",[12]; [30],70
same,"Plant response rating, Pigweed, Palmer",[13]; [29],90
same,"Plant response rating, Pigweed, Palmer",[13]; [30],90
same,"Plant response rating, Sedge, Umbrella (Flood)",[14],0
same,"Plant response rating, Kochia",[15]; [31],100
same,Kochia plant response rating,[15]; [32],40
same,"Plant response rating, Corn",[16]; [31],20
same,Corn plant response rating,[16]; [32],0
same,"Plant response rating, Ryegrass, Italian",[17]; [29],50
same,"Plant response rating, Ryegrass, Italian",[17]; [30],60
same,"Plant response rating, Rice (Flood)",[18],0
same,"Plant response rating, Soybean",[19]; [31],90
same,Soybean plant response rating,[19]; [32],60
same,"Plant response rating, Blackgrass",[20]; [29],10
same,"Plant response rating, Blackgrass",[20]; [30],50
same,"Plant response rating, Ragweed",[21]; [31],70
same,Ragweed plant response rating,[21]; [32],20
same,"Plant response rating, Barnyardgrass (Flood)",[22],0
same,"Plant response rating, Ducksalad (Flood)",[23],0
same,"Plant response rating, Blackgrass",[24]; [31],10
same,Blackgrass plant response rating,[24]; [32],0
same,"Plant response rating, Corn",[25]; [29],0
same,"Plant response rating, Corn",[25]; [30],20
same,"Plant response rating, Pigweed, Palmer",[26]; [31],100
same,"Pigweed, Palmer plant response rating",[26]; [32],100
same,"Plant response rating, Soybean",[27]; [29],100
same,"Plant response rating, Soybean",[27]; [30],100
same,"Plant response rating, Galium",[28]; [29],90
same,"Plant response rating, Galium",[28]; [30],90
